Entries after “also recorded” stand apart in the source; their conditions may differ.
Experiments:
[1] = test system: ZKO organoids; assay: interferon response of ZKO (PKCζ-lacking) small intestine organoids to 5-AZA-CdR; assay type: cell-based, mouse
Description: (§1) For generation of small intestine organoids, organoids were collected in ice-cold TrypLE solution (e.g., Life Technologies) to remove Matrigel, then pipetted 5 cycles and incubated 5 min at 37° C. to obtain single-cell suspension. Cells were washed twice in PBS 3% FBS and resuspended at room temperature with PBS with 100 μg/ml DNase I for 10 min before staining with anti-H-2Kb (clone AF6-88.5.5.3; eBioscience). For antigen presentation in MODE-K cells, cells were washed in PBS, trypsinized and wash with warm medium. Then, cells were resuspended and stained with anti-H-2Kk (clone 36-7-5; BioLegend) and anti-H-2Dk (clone 15-5-5; BD Pharmingen). Dead cells were excluded after 7-AAD staining. All flow cytometry experiments were performed on a BD LSRFortessa 14-colors analyzer at the Sanford Burnham Prebys Medical Discovery Institute Shared FACS Facility and flow cytometry data were analyzed using FlowJo software (Tree Star Inc.).
(§2) Intestinal epithelial cell […] isolation was performed as described previously Llado et al., Repression of Intestinal Stem Cell Function and Tumorigenesis through Direct Phosphorylation of β-catenin and Yap by PKCζ. Cell Reports (2015) 10,740-754, with some modification. […] Adenoma fragments were counted after isolation and a total of 250-500 fragments were mixed with 100 μl of growth factor reduced-Matrigel and plated in 12- or 24-well plates. […]

[2] = test system: WT organoids; assay: interferon response of WT small intestine organoids to 5-AZA-CdR; assay type: cell-based, mouse
Description: as §1, §2

[3] = test system: DKO^IEC mouse tumors; assay: TGF-βR1-specific inhibition experiment (galunisertib) in DKO^IEC mice; assay type: in vivo
Description: For CD8+ T cell depletion (FIG. 4, Panels A-L), 10-week-old LKO^IEC mice were injected intraperitoneally with 200 μg of anti-CD8 antibody (clone 2.43) or control IgG twice a week for 5 weeks until they were sacrificed. For the TGF-βR1-specific inhibition experiment, 10-week-old DKO^IEC mice were treated twice a day with a dose of 10 mg of galunisertib (Tauriello et al., 2018) per os for 6 weeks until they were sacrificed. Control mice were treated with vehicle. For checkpoint immunotherapy, either 10-week-old or 13-week-old DKO^IEC mice were injected intraperitoneally with a dose of 10 mg/kg (body mass) of anti-PD-L1 antibody (clone 6E11) twice a week for 3 weeks until they were sacrificed. For the combination therapy of anti-PD-L1 antibody and TGF-βR1-specific inhibitor, 23-week-old DKO^IEC mice were treated twice a day with a dose of 10 mg of galunisertib per os and injected intraperitoneally with a dose of 10 mg/kg (body mass) of anti-PD-L1 antibody twice a week for 3 weeks until they were sacrificed. Anti-PD-L1 antibody was provided by de Sauvage FJ (Genentech).
Organs were isolated, rinsed in ice-cold PBS, fixed in 10% neutral buffered formalin overnight at 4° C., dehydrated, and embedded in paraffin. Sections (5 μm) were stained with hematoxylin and eosin (H&E). For immunohistochemistry, sections were deparaffinized, rehydrated, and then treated for antigen retrieval. After blocking in Protein Block Serum-Free solutions (DAKO), tissues were incubated with primary antibody overnight at 4° C. followed by incubation with biotinylated secondary antibody. Endogenous peroxidase was quenched in 3% H2O2 in water for 10 min at room temperature. Antibodies were visualized with avidin/biotin complex (e.g., Vectastain Elite; Vector Laboratories) using diaminobenzidine as the chromogen. For immunofluorescence, fresh frozen organs were embedded in Tissue-Tek OCT compound (e.g., Sakura) and section of 10 μm were fixed in methanol, washed with PBS and then incubated with the primary antibodies. Washed sections were incubated with Alexa-conjugated secondary antibodies (e.g., Life Technologies) and examined with a Zeiss LSM 710 NLO Confocal Microscope. In situ hybridization for murine Ereg was carried out using RNAscope Multiplex Fluorescent Assay kit (Advanced Cell Diagnostics) following manufacturer's instructions. The probe corresponding to CDS region of murine Ereg (Accession #: NM_007950.2, probe region: 116-1496; Advanced Cell Diagnostics; Cat #: 437981). Cell death was analyzed using the In-Situ Cell Death Detection kit, TMR red (Thermo) for TUNEL. Masson's Trichrome staining was carried out following manufacturer's instructions (Sigma HT15-1KT).
Flow cytometry experiments were performed using fresh small intestinal tissue and organoid preparations. For the analyses of small intestinal tissue, a half part of duodenum, jejunum, and ileum was used for quantitative flow cytometry analysis of immune cell population of lamina propria. Briefly, small intestines were rinsed in cold PBS, minced into small pieces, incubated in HBSS with EDTA (5 mM) and digested with collagenase (0.05 mg/ml) for 30 min at 37° C., followed by a discontinuous Percoll separation method (40 and 75%) to purify immune cells. The cells concentrated at the interface were collected and washed in cold PBS. Red blood cells were removed with lysing buffer (BD Pharm Lyse) and live cells were counted using Trypan blue and then saturated with mouse Fc Block (purified anti-mouse CD16/CD32; 1:50; clone 2.4G2; BD Pharmingen) 30 min at 4° C. before incubating with specific dyed antibodies.
For IL-17A intracellular staining, cells were pretreated with 50 ng/ml of phorbolmyristate acetate and 500 ng/ml of ionomycin in the presence of 10 μg/ml of brefeldin A for 3 hr at 37° C. 5% CO2. […]

[4] = test system: serrated aPKC-DKO^IEC tumors; assay: PVHA treatment of aPKC-DKO^IEC mice; assay type: in vivo, mouse
Description: Mice treatment with PVHA: For the hyaluronidase-specific inhibition experiment, 11-week-old aPKC-DKO^IEC mice were injected intravenously twice per week with a low dose of 0.0375 mg or high dose of 0.2 mg/Kg of PVHA (Halozyme) for 3 weeks until they were sacrificed. Control mice were treated with vehicle.
Histology, immunohistochemistry: Organs were isolated, rinsed in ice-cold PBS, fixed in 10% neutral buffered formalin overnight at 4° C., dehydrated, and embedded in paraffin. For Masson TriChrome staining, the sections (5 μm) were deparaffinized, rehydrated, and then stained with the Trichrome Stain (Masson) Kit (Sigma-Aldrich, #HT15) following the manufacturer's instructions. For hyaluronan staining, sections (5 μm) were deparaffinized, rehydrated, and then incubated with biotinylated hyaluronan binding protein (Millipore Sigma, #385911) overnight at 4° C., followed by incubation with streptavidin HRP conjugate (Invitrogen, #434323). Staining was developed using diaminobenzidine. For CD8 staining, sections (5 μm) were deparaffinized, rehydrated, and then treated for antigen retrieval (Citrate, pH6) with heat. After blocking in Protein Block Serum-Free solutions (DAKO), tissues were incubated with primary antibody (anti-mouse CD8 (BD, #557654) overnight at 4° C. followed by incubation with biotinylated secondary antibody. Endogenous peroxidase was quenched in 3% H2O2 in water for 10 min at room temperature. Antibodies were visualized with avidin/biotin complex (Vectastain Elite; Vector Laboratories) using diaminobenzidine as the chromogen.

[5] = 3 μM for 24 hours, then drug-free culture, qRT-PCR
[6] = 10-week-old DKO^IEC mice, 10 mg per os twice a day for 6 weeks
[7] = aPKC-DKO^IEC mice, i.v. twice per week for 3 weeks from week 11

In the case of `Nc1ncn([C@H]2C[C@H](O)[C@@H](CO)O2)c(=O)n1` [5-AZA-CdR, 5-aza-2-deoxycytidine], the “expression of interferon-responsive genes Irf7, Oas1a, Isg15, and Cxcl10” value [1, 5] was “severely abrogated”, the “MHC class I long-chain H-2K^b on the surface” value ([1]; flow cytometry) was “but not on ZKO organoids” and the “expression of interferon-responsive genes Irf7, Oas1a, Isg15, and Cxcl10” value [2, 5] was “robustly induced”. For the same compound, the “MHC class I long-chain H-2K^b on the surface” value ([2]; flow cytometry) was “upregulated”.

`Cc1cccc(-c2nn3c(c2-c2ccnc4ccc(C(N)=O)cc24)CCC3)n1` [galunisertib] was tested, and the “incidence of invasive cancer” value [3, 6] was “reduced”, the “progression of SSA/P to the adenocarcinoma stage” value [3, 6] was “suppressed” and the tumor load [3, 6] was “did not reduce”. The tumor number [3, 6] was “did not reduce”, the tumor size [3, 6] was “did not reduce” and the “proportion of PD-L1+/CD45+ cells infiltrating DKO^IEC tumors” value ([3]; CD45/PD-L1 staining) was “not affected”. The collagen deposition ([3]; Masson's trichrome staining of small intestinal tumors, DKO^IEC mice) was “inhibition”, the “proportion of CD8+ T cells” value ([3]; flow cytometry, DKO^IEC tumors) was “did not significantly change” and the “proportion of CD11b+ myeloid cells” value ([3]; flow cytometry, DKO^IEC tumors) was “did not significantly change”. For the same compound, the “proportion of Th17 cells in the tumors” value ([3]; flow cytometry, DKO^IEC tumors) was “reduction”, the “proportion of Treg cells” value ([3]; flow cytometry, DKO^IEC tumors) was “did not significantly change” and the “expression of TGF-β-responsive genes, such as Angptl2, Cdkn2b, Il11, and Ereg” value ([3]; qRT-PCR mRNA levels, DKO^IEC mice) was “reduced expression”. For the same compound, the “stromal phospho-SMAD2” value ([3]; staining of small intestinal tumors, DKO^IEC mice) was “inhibition”.

Pegvorhyaluronidase alfa [PVHA] was tested, and the “progression of SSA/Ps to the adenocarcinoma stage” value ([4]; 11-week-old aPKC-DKO^IEC mice, i.v. twice per week for 3 weeks, low and high dose) was “suppressed”, the “number of CD8+ T cells stained in the tumor tissue (infiltration of CD8+ T cells)” value ([4]; CD8 staining of small intestinal tumors, compared to vehicle-treated samples) was “substantially increased; also recorded: increases” and the “collagen deposition in the tumors” value ([4]; Masson trichrome staining of small intestinal tumors) was “reduced”. For the same compound, the tumor load [4, 7] was “reduced”, the tumor number [4, 7] was “reduced” and the tumor size [4, 7] was “reduced”. For the same compound, the “serrated tumors in aPKC-DKO^IEC mice” value ([4]; figure legends FIG. 17 and FIG. 18) was “reduces”, the “incidence of invasive cancer” value ([4]; high dose of 0.2 mg/Kg, i.v. twice per week for 3 weeks from week 11) was “reduced” and the tumor burden ([4]; high dose of PVHA) was “reduce tumor burden substantially”. For the same compound, the “hyaluronan deposition in the tumors” value ([4]; hyaluronan staining of small intestinal tumors, low dose of PVHA (0.0375 mg/kg)) was “reduced”, the “incidence of invasive cancer” value ([4]; low dose of 0.0375 mg, i.v. twice per week for 3 weeks from week 11) was “reduced” and the tumor burden ([4]; low dose of PVHA) was “reduce tumor burden substantially”.
